Data: patent publication US20030228357A1, “Dry granulated formulations of azithromycin” (Pfizer Inc., priority 2002, published 2003)

Tests used:
Format in all cases: physicochemical
[1] = Tablet disintegration time, Automatic Disintegration Tester; conditions: Table 2A; Long blend; Oval tooling; distilled water at 37° C.
Protocol: The disintegration time was determined in distilled water at 37° C. using an Automatic Disintegration Tester (Model ZT72, Erweka USA Inc, Milford, Conn.) for the long blend tablets. Even with extensive blending times with magnesium stearate, reasonably short disintegration times of 15 and 20 seconds were obtained.

[2] = Slug (compact) hardness, Schleuniger hardness tablet tester
Text: A compaction simulator was used to compress the blends. The compaction simulator was designed as a single station tablet press in which the compression dwell time can be adjusted to simulate different types of tablet presses. All the formulations were slugged on the compaction simulator configured as the Kilian RX-67 press with a dwell time of 0.3145 seconds using […] round flat face tooling. The slugs were then comminuted using a Fitz mill with a 0.125″ screen with knives forward and run at slow speed. […] The slugs were tested for hardness (kP scale), using a Schleuniger hardness tablet tester (Dr. Schleuniger Pharmatron AG, Solothurn, Switzerland).

[3] = Tablet hardness, Schleuniger hardness tablet tester; conditions: Table 4D; high drug loading; diluent DCP, dihyd.; modified capsule shape
[4] = as above; conditions: DCP anhydrous
Protocol: (§1) All four formulations were compressed on the compaction simulator using either 0.344″×0.688″ oval tooling, or ½″ standard round concave (SRC) tooling. The tablets were tested for hardness (kP scale), using a Schleuniger hardness tablet tester (Dr. Schleuniger Pharmatron AG, Solothurn, Switzerland), and for friability (100 rotations/4 minutes) using a Vanderkamp Friabulator Tablet Tester (Vankel, Cary, N.C., US).

[5] = Indices of tableting performance (Hiestand) of bulk azithromycin; conditions: forms N, M, G, A milled, F and J unmilled
Protocol: Indices of tableting performance, for several azithromycin forms, were assessed to identify any mechanical deficiencies or attributes that may affect tablet formulation for these azithromycin forms. This assessment was performed in accordance with the procedures described in “Indices of Tableting, Performance” […] and D. P. Smith, Powder Technology 38 [1984] pp. 145-159. Specifically, the Brittle Fracture Index, BFI, was calculated from the ratio of a material's regular tensile strength to its compromised tensile strength. Strain Index, SI, was determined from the dynamic indentation hardness test. Worst Case Bonding Index was determined by assessing the extent of particle bonding remaining after decompression assuming a very short compression dwell time and a plastic mechanism of particle separation during decompression. Tableting Indices were determined for bulk azithromycin lots of six different crystalline forms, specifically forms N, M, G, A, F and J. Forms N, M and G were milled with a Fitzmill (Model JT, The Fitzpatrick Co., Elmhurst, Ill.) using a 0.027'' screen and knives at high speed in an attempt to match the smaller particle size of milled Form A. Unmilled forms F and J were evaluated “as is” due to their relatively small particle sizes.

[6] = Density and Carr's Compressibility Index (flowability) of dry blends and dry granulations
Text: Carr's Compressibility Index was used to evaluate the flowability of the four dry granulations. Carr's Compressibility Index is a simple test to evaluate flowability by comparing both the initial and final (tapped) bulk volumes and the rate of packing down. A useful empirical guide to flow is given by Carr's compressibility index: Compressibility Index(%)=[(tapped density−initial density)/tapped density]×100 […] The procedure is described in Int. J. Pharm. Tech. & Prod. Mfr., 6(3) 10-16, 1985.

[7] = Tablet friability, Vanderkamp Friabulator (100 rotations/4 minutes); conditions: Table 4D; high drug loading; diluent DCP, dihyd.; modified capsule shape
[8] = as above; conditions: DCP anhydrous
Protocol: Friability is a standard test known to one skilled in the art. Friability is measured under standardized conditions by weighing out a certain number of tablets (generally 20 tablets or less), placing them in a rotating Plexiglas drum in which they are lifted during replicate revolutions by a radial lever, and then dropped approximately 8 inches. After replicate revolutions (typically 100 revolutions at 25 rpm), the tablets are reweighed and the percentage of formulation abraded or chipped is calculated. The friability of the tablets, of the present invention, is preferably in the range of about 0% to 3%, and values about 1%, or less, are considered acceptable for most drug and food tablet contexts. Friability which approaches 0% is particularly preferred.
as §1

[9] = 35.2 wt % azithromycin, dicalcium phosphate anhydrous diluent, Long blend method
[10] = Table 3A, low drug loading: 35.2 wt % azithromycin, 54.8 wt % dicalcium phosphate anhydrous, long blend
[11] = Table 4B, high drug loading (58.2 wt % azithromycin), diluent DCP, dihyd.
[12] = Table 3C, low drug loading (35.2 wt % azithromycin), oval tablets, target weight 750 mg
[13] = 35.2 wt % azithromycin, dicalcium phosphate anhydrous diluent, Long blend method, slugged

CCC1OC(=O)C(C)C(O[C@H]2C[C@@](C)(OC)[C@@H](O)C(C)O2)C(C)[C@@H](OC2OC(C)CC(N(C)C)[C@H]2O)[C@@](C)(O)C[C@@H](C)CN(C)[C@H](C)[C@@H](O)[C@]1(C)O (some centres unmarked) [Form F, azithromycin monohydrate hemi-ethanol solvate]
Mean disintegration Time [1]: 20 s
Avg Slug Hardness [2, 9]: 22.4 kP
Avg Slug Hardness [2, 10]: 22 kP
Avg Slug Hardness [2, 11]: 9 kP
Avg Tablet Hardness [3]: 7.0 kP
Avg Tablet Hardness ([4]; Table 2A, 35.2 wt % azithromycin, Long blend, Oval tooling, compression force 13.5 kN (A), 19 kN (F)): 10.3 kP
Avg Hardness [4, 12]: 10.3 kP
Brittle Fracture Index (BFI) [5]: 0.37
Strain Index (SI) [5]: 0.0041
Tensile Strength [5]: 1.62 Mpa
Worst Case Bonding Index (BIw) × 10^2 [5]: 0.9
Dry Blend Carr's Index [6, 9]: 43%
Dry Blend density As Is [6, 9]: 0.50 g/cc
Dry Blend density Tapped [6, 9]: 0.88 g/cc
Granulation Carr's Index [6, 13]: 22%
Granulation Density As Is [6, 13]: 0.84 g/cc
Granulation Density Tapped [6, 13]: 1.07 g/cc
Granulation Carr's Index [6, 10]: 22%
Granulation Density As Is [6, 10]: 0.84 g/cc
Granulation Density Tapped [6, 10]: 1.08 g/cc
Dry Granulation Carr's Index [6, 11]: 27%
Dry Granulation Density As Is [6, 11]: 0.63 g/cc
Dry Granulation Density Tapped [6, 11]: 0.86 g/cc
Friability [7]: 0.31%
Friability ([8]; Table 2A, 35.2 wt % azithromycin, Long blend, Oval tooling): 0.48%
Friability [8, 12]: 0.48%
